Data taken from patent US20160102052A1, “Use of Cysteamine in Treating Infections caused by Yeasts/Moulds” (priority 2014, published 2016).

Test system: Candida albicans 73/025
Assay: Minimum inhibitory concentration test of cysteamine (Lynovex, NM001), CLSI M27-A3
Assay type: cell-based
Settings: vulvovaginal isolate 73/025; RPMI-1640, 35° C., read at 24 h and 48 h
Procedure: The aim of the experiment was to determine the MIC of Lynovex (NM001) against vulvovaginal isolate Candida albicans 73/025. Plates were prepared which contain a serial doubling dilution of Lynovex (NM001) at 2× final concentration. The cultures were then prepared in 2×RPMI-1640, according to the CLSI M27-A3 protocol, and mixed in equal volumes in the plate resulting in 1×RPMI-1640, the concentration of compound mentioned below, and the CLSI standard inoculum for C. albicans. These were incubated at 35° C. and read at 24 h and 48 h on the BioTek plate reader.
• 1. Culture of Candida albicans grown overnight at 30° C. • 2. Culture removed from incubator. Add 2 ml sterile dH2O to the overnight culture and wash the cells from the surface of the agar. Cells placed in fresh bijou tube. • 3. Serial doubling dilution carried out and measured against same volume of MacFarland Standard • a. 100 μl culture added to well A1 of microtitre plate. • b. 100 μl sterile dH2O added to wells A2-A11. • c. 100 μl culture added to well A2 of microtitre plate and mixed well resulting in a 1 in 2 dilution. • d. 100 μl taken from A2 and added to A3 on plate and mixed well resulting in a 1 in 4 dilution. • e. This is continued to A11 where 100 μl is removed and discarded. • f. […] Plate read at OD530 on BioTek • h. […]
• 1. […] The plate is read in the BioTek at OD530. • 3. […]

For `NCCS` [NM001, cysteamine], the “growth of Candida albicans” value was “inhibited the growth”.
